The results in this text go back to paper PMC7151704, “4-Amino-1,2,4-triazole-3-thione as a Promising Scaffold for the Inhibition of Serine and Metallo-β-Lactamases” (Pharmaceuticals, 2020).

SMILES strings stand for the structures.

Holding throughout (assay): nitrocefin hydrolysis, spectrophotometric; Ki from IC50 by Cheng-Prusoff
What all share (type): biochemical

The target in one test is T1, IMP-1 (Pseudomonas aeruginosa, UniProt Q79MP6).
T1 construct: gene blaIMP-1; codon-optimised wild type gene, pETite N-His SUMO Kan, E. coli Lemo21(DE3); His-SUMO cleaved by SUMO protease; IMAC and Superose 12
T1 sequence (Q79MP6 19-246 limits assumed): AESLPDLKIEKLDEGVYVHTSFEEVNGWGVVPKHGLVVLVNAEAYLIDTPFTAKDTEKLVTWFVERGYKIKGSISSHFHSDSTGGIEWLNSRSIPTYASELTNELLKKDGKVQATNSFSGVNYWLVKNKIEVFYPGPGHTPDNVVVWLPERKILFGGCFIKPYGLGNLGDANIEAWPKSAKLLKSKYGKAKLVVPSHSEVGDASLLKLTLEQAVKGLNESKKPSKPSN

The next test concerns the target T2, KPC-2 (Klebsiella pneumoniae, UniProt Q9F663).
T2 construct: recombinant, 'full-length KPC-2 enzyme'
From the text:
nitrocefin hydrolysis, spectrophotometric; Ki from IC50 by Cheng-Prusoff on KPC-2

The target in another test is T3, VIM-1 (Pseudomonas aeruginosa, UniProt Q9XAY4).
T3 construct: gene blaVIM; recombinant untagged, pET-24a(+) blaVIM-1 (pBPAQND2009), E. coli BL21(DE3); High Q and Superdex 75; zinc-supplemented buffers

T2 sequence (Q9F663 25-293 limits assumed): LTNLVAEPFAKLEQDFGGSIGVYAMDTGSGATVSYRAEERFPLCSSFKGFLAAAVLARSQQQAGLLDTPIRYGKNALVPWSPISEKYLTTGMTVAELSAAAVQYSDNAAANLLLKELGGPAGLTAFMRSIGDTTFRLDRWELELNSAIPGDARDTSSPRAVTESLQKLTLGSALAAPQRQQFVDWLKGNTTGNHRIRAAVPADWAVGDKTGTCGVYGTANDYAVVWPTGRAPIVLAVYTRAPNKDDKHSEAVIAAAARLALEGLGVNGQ

Usually Ki stands for the dissociation constant of the complex between target and ligand, obtained from inhibition or displacement. Low readings indicate a stronger hold on the target, high ones a looser hold on the target. For the compound `CCN(CC)c1ccc(CNn2cn[nH]c2=S)cc1` [1d, 4-((4-(diethylamino)benzyl)amino)-2,4-dihydro-3H-1,2,4-triazole-3-thione], the values for the inhibitory constant (Ki) on IMP-1, on KPC-2 and at VIM-1 were 173 ± 6 µM, 263 ± 13 µM and 224 ± 11 µM, respectively.

As to `S=c1[nH]ncn1NCc1ccc2c(c1)OCO2` [1f, 4-((benzo[d][1,3]dioxol-5-ylmethyl)amino)-2,4-dihydro-3H-1,2,4-triazole-3-thione], the Ki on IMP-1 turned out to be 125 ± 5 µM; at KPC-2 it was 138 ± 3 µM; at VIM-1, 120 ± 4 µM.

In the case of `Sc1nncn1/N=C/c1ccc(Br)cc1` [2b, 4-((4-bromobenzylidene)amino)-2,4-dihydro-3H-1,2,4-triazole-3-thione], the inhibition constant Ki at IMP-1 was found to be 285 ± 13 µM; at KPC-2, 158 ± 7 µM; at VIM-1, 58 ± 2 µM.

Consider `S=c1[nH]ncn1/N=C/c1c[nH]c2ccccc12` [2g, 4-(((1H-indol-3-yl)methylene)amino)-2,4-dihydro-3H-1,2,4-triazole-3-thione], for which the values for the Ki on IMP-1, at KPC-2 and on VIM-1 were 104 ± 4 µM, 139 ± 4 µM and 95 ± 3 µM, respectively.
